The test system of assay [1] is HCT116-MTAP wild-type (+/+)-cell strain. Description: Tumor cell proliferation inhibition assay (CellTiter-Glo), HCT116-MTAP wild-type (+/+). Type of assay: cell-based. Particulars: Homo sapiens, 120 h, HCT116-MTAP wild-type (+/+) cells, 5-day treatment. In outline: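 Growth inhibition is evaluated from cellular ATP measured with CellTiter-Glo once cells have been treated for 5 days. Compounds are added 24 h after seeding as ten threefold dilutions starting at 10 μM, with a separate DMSO treatment group.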

The test system of assay [2] is SDMA in human colon cancer cell line HCT116. Description: Cell symmetric dimethylarginine (SDMA) test, In-cell Western, HCT116 (MTAP wild-type). Type of assay: cell-based. Particulars: Homo sapiens, HCT-116, 96 h. In outline:
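SDMA level, an indirect readout of cellular MAT2A inhibition, measured by In-cell Western as background-subtracted 800/700 nm signal against DRAQ5. Cells exposed 4 days to six 1:4-diluted doses from 6 μM; inhibition relative to DMSO, IC50 from sigmoidal fit.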

In assay [3] the target is MAT2A recombinant protein (Homo sapiens, UniProt P31153). Description: MAT2A inhibitory activity (malachite green colorimetric enzyme assay). The class given is biochemical. In outline: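 Compounds tested over 10 points, 3-fold dilutions, top final concentration 1000 nM. Enzyme reaction: MAT2A, L-methionine, ATP, room temperature, 60 min, in HEPES pH 7.5 buffer with KCl, MgCl2 and DTT; inorganic phosphate read colorimetrically (malachite green, A630). Inhibition vs log concentration fitted for IC50.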

The mark [4] stands for this setting: IC50 score, read-out: Tumor cell 5-day relative growth inhibition (HCT116-MTAP+/+) (nM), score.
[5] abbreviates: IC50 value, read-out: Tumor cell 5-day relative growth inhibition (HCT116-MTAP+/+).
[6] abbreviates: IC50 score class, read-out: Cell 96 h SDMA Inhibition (HCT116-MTAP+/+) (score).
The mark [7] stands for this setting: read-out: Cell 96 h SDMA inhibition (HCT116-MTAP+/+).
Setting [8] is: IC50 score class, read-out: MAT2A Inhibition (score).

IC50 data for 10 compounds are collected here from patent US20240391923A1, “METHIONINE ADENOSYLTRANSFERASE 2A INHIBITOR FOR TREATING MTAP DELETION-TYPE CANCER” (SUZHOU GENHOUSE BIO CO., LTD., priority 2022, published 2024).

Read-outs that look alike come from different tables or passages of the source.

Sequence of MAT2A recombinant protein (P31153 whole entry): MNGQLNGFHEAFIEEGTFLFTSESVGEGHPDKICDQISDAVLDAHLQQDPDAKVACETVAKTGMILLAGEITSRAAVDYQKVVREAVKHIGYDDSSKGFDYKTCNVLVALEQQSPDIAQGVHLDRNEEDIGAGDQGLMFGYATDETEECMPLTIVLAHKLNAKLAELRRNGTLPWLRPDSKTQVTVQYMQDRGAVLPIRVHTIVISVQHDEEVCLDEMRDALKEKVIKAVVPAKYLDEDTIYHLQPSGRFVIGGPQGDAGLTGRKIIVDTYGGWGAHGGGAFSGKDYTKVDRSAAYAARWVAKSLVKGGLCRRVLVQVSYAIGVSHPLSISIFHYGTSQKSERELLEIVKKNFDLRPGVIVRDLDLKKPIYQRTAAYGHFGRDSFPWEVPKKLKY

For `O=c1c2n[nH]cc2c2ccc(C(F)(F)F)nc2n1-c1cccnc1` [Compound B178], the IC50 was ≥ 2000 nM in assay [1] (setting [4]); ≥ 2000 nM in assay [1] (setting [5]); 1000 to 3000 nM in assay [2] (setting [6]); 1060 nM in assay [2] (setting [7]); < 100 nM in assay [3] (setting [8]); 19 nM in assay [3] (read-out: MAT2A Inhibition).
Turning to `Cn1cc2c(n1)c(=O)n(-c1cccc(O)c1)c1nc(C(F)(F)F)ccc21` [Compound B148], the IC50 in assay [2] (setting [6]) is 1000 to 3000 nM; in assay [2] (setting [7]), 1030 nM; in assay [3] (setting [8]), < 100 nM; in assay [3] (read-out: MAT2A Inhibition), 24.6 nM.
Turning to `Cn1cc2c(n1)c(=O)n(-c1cccc3[nH]ncc13)c1cc(Cl)c(F)cc21` [Compound B257], the IC50 in assay [1] (setting [4]) was 500 to 2000 nM; in assay [1] (setting [5]), 464 nM; in assay [2] (setting [6]), 1000 to 3000 nM; in assay [2] (setting [7]), 2160 nM; in assay [3] (setting [8]), < 100 nM; in assay [3] (read-out: MAT2A Inhibition), 39.6 nM.
As for `Cn1cc2c(n1)c(=O)n(-c1cccc3[nH]ncc13)c1cc(Cl)ccc21` [Compound B60], the IC50 is 500 to 2000 nM in assay [1] (setting [4]); 1000 nM in assay [1] (setting [5]); 200 to 1000 nM in assay [2] (setting [6]); 467 nM in assay [2] (setting [7]); < 100 nM in assay [3] (setting [8]); 47.5 nM in assay [3] (read-out: MAT2A Inhibition).
Consider `Cc1ncccc1-n1c(=O)c2nn(C)cc2c2ccc(C(F)(F)F)nc21` (single isomer, unassigned) [Compound B180], for which the IC50 in assay [1] (setting [4]) was < 500 nM; in assay [1] (setting [5]) it was 191 nM; in assay [2] (setting [6]), < 200 nM; in assay [2] (setting [7]), 99.2 nM.
Turning to `Cn1cc2c(n1)c(=O)n(-c1cccc3[nH]ncc13)c1cc(Cl)c(C#N)cc21` [Compound B258], the IC50 is ≥ 2000 nM in assay [1] (setting [4]); > 10000 nM in assay [1] (setting [5]); > 3000 nM in assay [2] (setting [6]); > 10000 nM in assay [2] (setting [7]); < 100 nM in assay [3] (setting [8]); 28 nM in assay [3] (read-out: MAT2A Inhibition).
As for `Cn1cc2c(n1)c(=O)n(-c1cccnc1C1CC1)c1cc(Cl)c(F)cc21` [Compound B340], the IC50 is ≥ 2000 nM in assay [1] (setting [4]), > 10000 nM in assay [1] (setting [5]), > 3000 nM in assay [2] (setting [6]) and > 10000 nM in assay [2] (setting [7]).
Consider `Cn1cc2c(n1)c(=O)n(-c1cccnc1)c1cc(Cl)ccc21` [Compound B12], for which the IC50 was 500 to 2000 nM in assay [1] (setting [4]), 1650 nM in assay [1] (setting [5]), 1000 to 3000 nM in assay [2] (setting [6]) and 1420 nM in assay [2] (setting [7]).
Turning to `Cn1cc2c(n1)c(=O)n(-c1cccc3[nH]ncc13)c1nc(C(F)(F)F)ccc21` [Compound B181], the IC50 in assay [1] (setting [4]) is 500 to 2000 nM; in assay [1] (setting [5]), 1340 nM; in assay [2] (setting [6]) it was 200 to 1000 nM; in assay [2] (setting [7]), 480 nM; in assay [3] (setting [8]), < 100 nM; in assay [3] (read-out: MAT2A Inhibition), 14.7 nM.
For the compound `Cn1cc2c(n1)c(=O)n(-c1ccccc1Cl)c1nc(C(F)(F)F)ccc21` [Compound B182], the IC50 was ≥ 2000 nM in assay [1] (setting [4]); 7340 nM in assay [1] (setting [5]); > 3000 nM in assay [2] (setting [6]); > 3000 nM in assay [2] (setting [7]); < 100 nM in assay [3] (setting [8]); 56.9 nM in assay [3] (read-out: MAT2A Inhibition).
